In patent US12589092B2, “Polycyclic compound acting as kinase inhibitor” (HANGZHOU INNOGATE PHARMA CO., LTD., priority 2020, dated 2026):
Where two headings read alike, the source gives them in different places.

Legend:
CDK6/cycD3 = CDK6/cycD3 (Homo sapiens, UniProt Q00534); assay: CDK6 kinase activity inhibition assay (caliper mobility shift); format: biochemical; settings: CDK6/cycD3 15 nM, ATP 800 μM; read-out: CDK6 kinase inhibitory activity (IC50)
Protocol: (§1) 1) CDK2, CDK4 and CDK6 Kinase Activity Inhibition Assay
(§2) In vitro enzymatic activity of the CDK isoforms CDK2/CycA2, CDK4/CycD3 and CDK6/cycD3 were measured using caliper mobility shift assay. Dissolve the compounds in DMSO and dilute them with corresponding kinase buffer (CDK2/CycA2 and CDK6/CycD3 were assayed with buffer conditions of 50 mM HEPES (pH 7.5), 10 mM MgCl2, 0.0015% Brij-35 and 2 mM dithiothreitol; CDK4/CycD3 was assayed with buffer condition of 20 mM HEPES (pH 7.5), 10 mM MgCl2, 0.01% Triton X-100 and 2 mM dithiothreitol). Add 5 μl of compound (10% DMSO) with 5 times the final concentration of the reaction to a 384-well plate. […] Collect conversion data on Caliper EZ Reader II (Caliper Life Sciences). Convert the conversion rate into inhibition rate data (% inhibition rate=(max−conversion rate)/(max−min)*100). […] Draw a curve with the concentration and inhibition rate of the compound as abscissa and ordinate, and use XLFit excel add-in version 4.3.1 software to fit the curve and calculate IC50.

CDK2/CycA2 = CDK2/CycA2 (Homo sapiens, UniProt P24941); assay: CDK2 kinase activity inhibition assay (caliper mobility shift); format: biochemical; settings: CDK2/CycA2 12 nM, ATP 39 μM; read-out: CDK2 kinase inhibitory activity (IC50)
Protocol: as §1, §2

CDK9/CycT1 = CDK9/CycT1 (Homo sapiens, UniProt P50750); assay: CDK9 kinase activity inhibition assay (ADP-Glo); format: biochemical; settings: read-out: CDK9 kinase inhibitory activity (IC50)
Chain of CDK9/CycT1 (P50750 whole entry): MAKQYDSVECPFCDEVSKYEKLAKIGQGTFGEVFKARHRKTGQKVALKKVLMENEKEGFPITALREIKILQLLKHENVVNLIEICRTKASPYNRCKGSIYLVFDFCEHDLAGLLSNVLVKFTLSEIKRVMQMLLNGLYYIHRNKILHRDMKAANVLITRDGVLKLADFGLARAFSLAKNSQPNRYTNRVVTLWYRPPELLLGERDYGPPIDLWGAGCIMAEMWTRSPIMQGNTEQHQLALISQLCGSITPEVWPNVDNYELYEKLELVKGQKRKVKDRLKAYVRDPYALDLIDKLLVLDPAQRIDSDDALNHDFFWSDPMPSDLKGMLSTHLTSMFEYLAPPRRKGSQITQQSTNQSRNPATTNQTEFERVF
Chain of CDK9/CycT1 (O60563 whole entry partner): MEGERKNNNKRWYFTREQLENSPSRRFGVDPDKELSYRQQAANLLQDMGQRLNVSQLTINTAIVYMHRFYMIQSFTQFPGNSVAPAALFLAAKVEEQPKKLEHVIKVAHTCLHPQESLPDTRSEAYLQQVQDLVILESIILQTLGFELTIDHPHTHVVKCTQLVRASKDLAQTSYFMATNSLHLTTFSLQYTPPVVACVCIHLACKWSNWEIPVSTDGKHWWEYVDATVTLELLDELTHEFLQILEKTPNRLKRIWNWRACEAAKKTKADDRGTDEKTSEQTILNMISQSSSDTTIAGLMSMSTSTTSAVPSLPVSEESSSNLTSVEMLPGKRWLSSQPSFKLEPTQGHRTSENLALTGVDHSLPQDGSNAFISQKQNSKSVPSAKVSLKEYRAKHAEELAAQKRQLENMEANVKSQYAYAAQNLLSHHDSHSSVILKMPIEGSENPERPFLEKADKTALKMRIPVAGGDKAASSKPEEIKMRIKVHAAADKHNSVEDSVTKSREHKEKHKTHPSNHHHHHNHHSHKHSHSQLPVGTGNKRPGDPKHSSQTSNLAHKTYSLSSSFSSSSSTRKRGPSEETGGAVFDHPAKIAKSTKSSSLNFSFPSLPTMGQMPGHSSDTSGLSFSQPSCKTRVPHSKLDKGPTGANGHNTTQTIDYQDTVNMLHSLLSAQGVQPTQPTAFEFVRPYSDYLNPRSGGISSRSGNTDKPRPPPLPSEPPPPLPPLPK
Protocol: (§3) 3) CDK5, CDK9 and CDK16 Kinase Activity Inhibition Assay
(§4) CDK5/p35NCK, CDK9/CycT1 and CDK16/CycY protein kinase activities were determined using the ADP-Glo Kinase Assay. Dilute the positive compound and the test compound (10 mM stock solution) 25-fold with 100% DMSO, make a 4-fold serial dilution in a 96-well dilution plate, and add 1 μL of the compound to 49 μL of kinase reaction buffer (1 mM Tris, 20 mM MgCl2, 0.10% BSA and 0.5 mM DTT) on a microplate shaker for 20 min. Transfer 2 μL of 2× kinase to the 384-well reaction plate, add 1 μL of the test compound to the 384-well reaction plate, centrifuge at 1000 rpm/min for 1 min, and incubate at 25° C. for 10 min. Transfer 1 μL of the 4× substrate mix to the 384-well reaction plate, centrifuge at 1000 rpm/min for 1 min, and incubate at 25° C. for 60 min. Transfer 4 μL of ADP-Glo to the 384-well reaction plate to centrifuge at 1000 rpm/min for 1 min, and incubate at 25° C. for 40 min. Transfer 8 μL of detection solution to the 384-well reaction plate to centrifuge at 1000 rpm/min for 1 min, and incubate at 25° C. for 40 min. The RLU (Relative luminescence unit) signal was read using a Biotek multifunctional plate reader. Signal intensity is used to characterize the degree of kinase activity. Compound inhibition rate data: % inhibition rate=[1−(compound mean RLU−positive control mean RLU)/(negative control mean RLU−positive control mean RLU)]*100. Taking the log value of the concentration as the X axis and the percentage inhibition rate as the Y axis, the log(inhibitor) vs. response-Variable slope of the analysis software GraphPad Prism 5 was used to fit the dose-response curve to obtain the IC50 value of each compound on the enzyme activity.

TRKA = TRKA (Homo sapiens, UniProt P04629); assay: TRKA kinase activity inhibition assay (caliper mobility shift); format: biochemical
Chain of TRKA (P04629 33-796): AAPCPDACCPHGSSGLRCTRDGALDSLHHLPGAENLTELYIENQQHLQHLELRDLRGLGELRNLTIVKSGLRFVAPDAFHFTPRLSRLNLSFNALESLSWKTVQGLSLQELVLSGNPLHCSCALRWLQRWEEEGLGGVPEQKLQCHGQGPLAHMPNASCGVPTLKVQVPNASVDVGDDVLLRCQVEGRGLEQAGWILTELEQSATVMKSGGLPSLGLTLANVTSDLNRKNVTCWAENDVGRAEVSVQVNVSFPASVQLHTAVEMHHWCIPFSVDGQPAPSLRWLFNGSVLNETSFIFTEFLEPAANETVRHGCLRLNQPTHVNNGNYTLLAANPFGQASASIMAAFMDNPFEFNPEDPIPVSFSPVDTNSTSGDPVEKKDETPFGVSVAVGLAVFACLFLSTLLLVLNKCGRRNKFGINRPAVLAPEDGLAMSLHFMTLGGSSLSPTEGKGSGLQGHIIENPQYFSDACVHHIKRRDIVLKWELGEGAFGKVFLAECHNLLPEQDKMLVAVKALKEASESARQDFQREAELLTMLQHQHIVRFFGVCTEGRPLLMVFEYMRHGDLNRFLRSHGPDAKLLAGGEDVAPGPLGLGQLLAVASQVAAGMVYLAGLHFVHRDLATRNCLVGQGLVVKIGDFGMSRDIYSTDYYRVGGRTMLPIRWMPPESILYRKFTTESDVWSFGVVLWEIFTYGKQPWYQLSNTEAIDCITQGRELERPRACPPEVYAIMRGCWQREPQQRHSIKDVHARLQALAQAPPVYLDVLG
Protocol: 2) TRKA Kinase Activity Inhibition Assay
TRKA protein kinase activity was measured by caliper mobility shift assay. Compounds were dissolved in DMSO to make up 10 mM stock solutions. Prepare 1× kinase reaction buffer to serially dilute compounds. 250 nL 100× final concentration of the test compounds were transferred to destination plate 3573 by dispenser Echo 550. Prepare a 2.5× final concentration of kinase solution with 1× kinase buffer. Add 10 μL of 2.5× final kinase solution to compound wells and positive control wells; add 10 μL of 1× kinase buffer to negative control wells. Centrifuge at 1000 rpm for 30 s, shake and mix the reaction plate and incubate at room temperature for 10 min. Prepare a mixture of ATP and kinase substrate solution at 5/3× final concentration with 1× kinase buffer. The reaction was initiated by adding 15 μL of the mixed solution. Centrifuge the 384-well plate at 1000 rpm for 30 s, shake and mix well, and incubate at room temperature for the corresponding time. Add 30 μL of stop solution to stop the kinase reaction, centrifuge at 1000 rpm for 30 s, mix by shaking, and read the conversion rate data with Caliper EZ Reader. Convert conversion to inhibition data (% inhibition=(max DMSO well conversion−sample well conversion)/(max DMSO well conversion−min negative control conversion)*100). Wherein max refers to the conversion rate of the DMSO control, and min refers to the conversion rate of the non-enzymatic control. Draw a curve with the concentration and inhibition rate of the compound as abscissa and ordinate, and use XLFit excel add-in version 4.3.1 software to fit the curve and calculate IC50.

[1] = Pharmacokinetic study in rats (intragastrical administration, plasma LC-MS/MS); settings: male, SD, rat, po, 3 mg/kg
Protocol: Instruments: XEVO TQ-S LC/MS instrument produced by Waters. All measurement data is collected and processed by Masslynx V4.1 software, and the data is calculated and processed by Microsoft Excel. Using WinNonLin 8.0 software, the statistical moment method was used to calculate the pharmacokinetic parameters. Mainly include kinetic parameters Tmax, T1/2, Cmax, AUClast etc. Column: ACQUITY UPLC BEH C18 (2.1 mm×50 mm, 1.7 μm); column temperature 40° C.; mobile phase A is water (0.1% formic acid), mobile phase B is acetonitrile, flow rate is 0.350 ml/min, gradient elution is adopted, the elution gradient is 0.50 min: 10% B; 1.50 min: 10% B; 2.30 min: 95% B; 2.31 min: 10% B; 3.00 min: stop. Injection volume: 5 μL.
Animals: 3 male SD rats with a weight range of 200-220 g. After purchase, they will be kept in the laboratory of the Experimental Animal Center for 2 days and then used. They will be fasted for 12 hours predose and 4 hours after dosing. Drinking water is free during the test. After the rats were gavage, blood samples were taken according to the established time point.
Solvent: 0.5% Methylcellulose (aqueous solution containing 0.4% Tween 80 and 1% ethanol). Preparation of the solution for intragastrical administration: accurately weigh the compound, add it to the solvent, and use ultrasound at room temperature for 5 minutes to completely dissolve the drug, and prepare a 0.3 mg/ml medicinal solution.
A single administration was also used to study the pharmacokinetics of the drug sample in rats.
After intragastrical administration, blood was taken from the orbit at 0.25, 0.5, 1, 2, 4, 9, 12 and 24 hours, and placed in a plastic centrifuge tube pretreated with sodium heparin. After centrifugation, the supernatant plasma was used for LC-MS/MS analysis.
Accurately weigh the compounds to prepare different concentrations, perform quantitative analysis on mass spectrometry to establish a standard curve, and then test the concentration of the above-mentioned compound in the plasma to obtain the compound concentration at different time points. All measurement data are collected and processed by relevant software, and the statistical moment method is used to calculate the pharmacokinetic parameters (mainly including kinetic parameters Tmax, T1/2, Cmax, AUClast etc).

CDK4/CycD3 = CDK4/CycD3 (Homo sapiens, UniProt P11802); assay: CDK4 kinase activity inhibition assay (caliper mobility shift); format: biochemical; settings: CDK4/CycD3 10 nM, ATP 221 μM; read-out: CDK4 kinase inhibitory activity (IC50)
Chain of CDK4/CycD3 (P11802 whole entry): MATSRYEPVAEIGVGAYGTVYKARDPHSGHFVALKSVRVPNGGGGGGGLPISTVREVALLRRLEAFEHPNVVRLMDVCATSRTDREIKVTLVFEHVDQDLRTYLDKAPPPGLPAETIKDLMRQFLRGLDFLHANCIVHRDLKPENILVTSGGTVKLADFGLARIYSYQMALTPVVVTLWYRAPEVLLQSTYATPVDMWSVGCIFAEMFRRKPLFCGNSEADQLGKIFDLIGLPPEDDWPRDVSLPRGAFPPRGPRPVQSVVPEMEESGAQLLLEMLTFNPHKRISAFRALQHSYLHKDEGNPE
Chain of CDK4/CycD3 (P30281 whole entry partner): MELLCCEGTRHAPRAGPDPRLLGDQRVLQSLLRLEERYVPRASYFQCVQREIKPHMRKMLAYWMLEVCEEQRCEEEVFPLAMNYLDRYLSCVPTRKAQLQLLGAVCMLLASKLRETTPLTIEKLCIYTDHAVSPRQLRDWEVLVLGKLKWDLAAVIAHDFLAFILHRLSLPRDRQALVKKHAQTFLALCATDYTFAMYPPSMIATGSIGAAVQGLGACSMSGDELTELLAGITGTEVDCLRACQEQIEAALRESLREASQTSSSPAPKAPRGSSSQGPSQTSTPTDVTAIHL
Protocol: as §1, §2

CDK16/CycY = CDK16/CycY (Homo sapiens, UniProt Q00536); assay: CDK16 kinase activity inhibition assay (ADP-Glo); format: biochemical; settings: read-out: CDK16 kinase inhibitory activity (IC50)
Chain of CDK16/CycY (Q00536 whole entry): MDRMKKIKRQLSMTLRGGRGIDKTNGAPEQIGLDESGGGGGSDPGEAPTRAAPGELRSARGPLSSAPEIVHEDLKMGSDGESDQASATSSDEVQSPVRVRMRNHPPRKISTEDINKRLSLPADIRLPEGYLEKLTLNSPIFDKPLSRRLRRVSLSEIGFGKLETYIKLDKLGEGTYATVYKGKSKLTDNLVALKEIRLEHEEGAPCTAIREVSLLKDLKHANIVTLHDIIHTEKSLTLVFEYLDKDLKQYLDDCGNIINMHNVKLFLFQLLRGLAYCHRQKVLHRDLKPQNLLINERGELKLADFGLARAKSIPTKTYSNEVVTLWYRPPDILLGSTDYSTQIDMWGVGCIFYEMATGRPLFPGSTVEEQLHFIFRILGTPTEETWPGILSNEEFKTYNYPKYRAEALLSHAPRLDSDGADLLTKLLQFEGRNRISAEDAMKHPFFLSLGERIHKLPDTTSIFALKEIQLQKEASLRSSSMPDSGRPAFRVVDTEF
Chain of CDK16/CycY (Q8ND76 whole entry partner): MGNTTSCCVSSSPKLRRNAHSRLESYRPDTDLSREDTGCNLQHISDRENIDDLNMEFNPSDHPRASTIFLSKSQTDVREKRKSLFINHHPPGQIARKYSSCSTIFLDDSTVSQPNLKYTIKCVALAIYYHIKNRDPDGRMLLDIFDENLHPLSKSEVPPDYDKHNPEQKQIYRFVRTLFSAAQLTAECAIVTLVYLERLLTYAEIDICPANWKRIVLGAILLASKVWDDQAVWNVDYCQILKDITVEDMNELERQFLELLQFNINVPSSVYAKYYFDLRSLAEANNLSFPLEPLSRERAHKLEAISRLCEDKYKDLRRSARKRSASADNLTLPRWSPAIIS
Protocol: as §3, §4

CDK5/p35NCK = CDK5/p35NCK (Homo sapiens, UniProt Q00535); assay: CDK5 kinase activity inhibition assay (ADP-Glo); format: biochemical; settings: read-out: CDK5 kinase inhibitory activity (IC50)
Chain of CDK5/p35NCK (Q00535 whole entry): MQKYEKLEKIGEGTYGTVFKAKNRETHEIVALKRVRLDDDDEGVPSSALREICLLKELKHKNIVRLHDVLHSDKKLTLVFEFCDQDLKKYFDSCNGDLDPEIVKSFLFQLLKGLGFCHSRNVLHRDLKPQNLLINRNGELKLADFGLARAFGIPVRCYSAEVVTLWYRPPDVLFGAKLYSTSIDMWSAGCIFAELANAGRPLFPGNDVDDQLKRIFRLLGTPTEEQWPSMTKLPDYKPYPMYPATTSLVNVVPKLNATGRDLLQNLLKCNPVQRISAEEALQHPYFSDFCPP
Chain of CDK5/p35NCK (Q15078 whole entry partner): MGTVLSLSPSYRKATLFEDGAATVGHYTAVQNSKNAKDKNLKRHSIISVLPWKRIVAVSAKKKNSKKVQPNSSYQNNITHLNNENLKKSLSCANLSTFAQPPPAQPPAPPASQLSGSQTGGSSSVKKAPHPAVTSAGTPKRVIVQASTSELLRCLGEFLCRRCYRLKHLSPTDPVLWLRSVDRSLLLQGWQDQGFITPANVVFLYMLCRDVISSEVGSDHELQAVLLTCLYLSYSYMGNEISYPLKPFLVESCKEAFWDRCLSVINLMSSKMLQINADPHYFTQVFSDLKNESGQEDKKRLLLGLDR
Protocol: as §3, §4

[2] = read-out: TRKA kinase inhibitory activity (IC50)

Chain of CDK6/cycD3 (Q00534 whole entry): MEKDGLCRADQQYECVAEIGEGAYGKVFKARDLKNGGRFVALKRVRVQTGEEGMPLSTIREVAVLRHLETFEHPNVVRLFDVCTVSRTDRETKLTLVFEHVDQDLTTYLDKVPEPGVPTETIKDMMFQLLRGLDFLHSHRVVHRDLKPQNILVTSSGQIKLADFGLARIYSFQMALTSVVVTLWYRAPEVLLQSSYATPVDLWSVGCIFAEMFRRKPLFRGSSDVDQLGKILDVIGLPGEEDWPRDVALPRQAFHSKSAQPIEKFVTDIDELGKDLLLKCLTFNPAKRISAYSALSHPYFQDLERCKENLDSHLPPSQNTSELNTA
Chain of CDK6/cycD3 (P30281 whole entry partner): as the sequence (P30281 whole entry partner) above

Row | IC50 (CDK6/cycD3) | IC50 (CDK2/CycA2) | IC50 (CDK9/CycT1) | IC50 (TRKA; [2]) | AUC(0-t) [1] | Cmax [1] | Tmax [1] | half-life [1] | IC50 (CDK4/CycD3) | IC50 (CDK16/CycY) | IC50 (CDK5/p35NCK) | Structure (SMILES) | IC50 (TRKA)
1 | < 10 nM | < 100 nM | < 20 nM | < 10 nM | 1230 ng·h/mL | 85.7 ng/mL | 5.33 h | 341 min | < 10 nM | < 50 nM | < 100 nM | CC(=O)c1c(C)c2cnc(Nc3ccc4c(c3)OC[C@@H]3CN(C5CCNCC5)CCN43)nc2n(C2CCCC2)c1=O [Compound 3S] | –
2 | < 10 nM | < 100 nM | < 20 nM | < 10 nM | 3770 ng·h/mL | 250 ng/mL | 12 h | 644 min | < 10 nM | < 100 nM | < 100 nM | CCN1CCC(N2CCN3c4ccc(Nc5ncc6c(C)c(C(C)=O)c(=O)n(C7CCCC7)c6n5)cc4OC[C@@H]3C2)CC1 [Compound 4S] | –
3 | < 10 nM | < 100 nM | – | – | 2480 ng·h/mL | 266 ng/mL | 6 h | 131 min | < 10 nM | – | – | CC(=O)c1c(C)c2cnc(Nc3ccc4c(c3)OC[C@@H]3CN(C5CCN(C(C)=O)CC5)CCN43)nc2n(C2CCCC2)c1=O [Compound 5S] | –
4 | < 10 nM | < 100 nM | – | – | 662 ng·h/mL | 54.9 ng/mL | 6.67 h | 259 min | < 10 nM | – | – | CC(=O)c1c(C)c2cnc(Nc3ccc4c(c3)OC[C@@H]3CN(C5CCN(C6CC6)CC5)CCN43)nc2n(C2CCCC2)c1=O [Compound 6S] | –
5 | < 100 nM | < 500 nM | – | – | – | – | – | – | < 20 nM | – | – | CC(=O)c1c(C)c2cnc(Nc3cc(C)c4c(c3)OC[C@@H]3CN(C5CCN(C)CC5)CCN43)nc2n(C2CCCC2)c1=O [Compound 8S] | –
6 | < 50 nM | < 500 nM | – | – | 697 ng·h/mL | 42.5 ng/mL | 12 h | 936 min | < 10 nM | – | – | CC(=O)c1c(C)c2cnc(Nc3cc(F)c4c(c3)OC[C@@H]3CN(C5CCN(C)CC5)CCN43)nc2n(C2CCCC2)c1=O [Compound 9S] | –
7 | < 10 nM | < 100 nM | – | – | – | – | – | – | < 10 nM | – | – | CC(=O)c1c(C)c2cnc(Nc3ccc4c(c3)OC[C@@H]3CN(C5CN(C6CC6)C5)CCN43)nc2n(C2CCCC2)c1=O [Compound 12S] | –
8 | – | < 100 nM | – | – | – | – | – | – | < 10 nM | – | – | CC(=O)c1c(C)c2cnc(Nc3ccc4c(c3)OC[C@@H]3CN(C5CCN(CC#N)CC5)CCN43)nc2n(C2CCCC2)c1=O [Compound 17S] | –
9 | – | < 500 nM | – | – | – | – | – | – | < 10 nM | – | – | CC(=O)c1c(C)c2cnc(Nc3ccc4c(c3)OC[C@@H]3CN(C5CCC5)CCN43)nc2n(C2CCCC2)c1=O [Compound 18S] | –
10 | – | < 500 nM | – | – | – | – | – | – | < 100 nM | – | – | CC(=O)c1c(C)c2cnc(Nc3ccc4c(c3)N3CCN(C5CCN(C)CC5)C[C@H]3CO4)nc2n(C2CCCC2)c1=O [Compound 19S] | –
11 | – | < 500 nM | – | – | – | – | – | – | – | – | – | CC(=O)c1c(C)c2cnc(Nc3ccc4c(c3)N3CCN(C5CCNCC5)C[C@H]3CO4)nc2n(C2CCCC2)c1=O [Compound 20S] | –
12 | – | < 500 nM | – | – | – | – | – | – | – | – | – | CC(=O)c1c(C)c2cnc(Nc3ccc4c(c3)N3CCN(C5CCN(C(C)=O)CC5)C[C@H]3CO4)nc2n(C2CCCC2)c1=O [Compound 21S] | –

The remaining lines, values behind:

Row | Structure (SMILES) | IC50 (CDK6/cycD3) | IC50 (CDK2/CycA2) | IC50 (CDK9/CycT1) | IC50 (TRKA; [2]) | AUC(0-t) [1] | Cmax [1] | Tmax [1] | half-life [1] | IC50 (CDK4/CycD3) | IC50 (CDK16/CycY) | IC50 (CDK5/p35NCK) | IC50 (TRKA)
13 | CC(=O)c1c(C)c2cnc(Nc3ccc4c(c3)OC[C@H]3CN(C5CCOCC5)CCN43)nc2n(C2CCCC2)c1=O [Compound 1R] | < 20 nM | < 100 nM | < 50 nM | < 10 nM | 274 ng·h/mL | 43.4 ng/mL | 2 h | 178 min | < 10 nM | < 100 nM | < 100 nM | –
14 | CC(=O)c1c(C)c2cnc(Nc3ccc4c(c3)OC[C@@H]3CN(C5CCOCC5)CCN43)nc2n(C2CCCC2)c1=O [Compound 1S] | < 20 nM | < 100 nM | – | – | 192 ng·h/mL | 37.3 ng/mL | 3 h | 385 min | < 10 nM | – | – | –
15 | CC(=O)c1c(C)c2cnc(Nc3ccc4c(c3)OC[C@H]3CN(C5CCN(C)CC5)CCN43)nc2n(C2CCCC2)c1=O [Compound 2R] | < 10 nM | < 100 nM | – | – | – | – | – | – | < 10 nM | – | – | < 10 nM
16 | CC(=O)c1c(C)c2cnc(Nc3ccc4c(c3)OC[C@H]3CN(C5CCNCC5)CCN43)nc2n(C2CCCC2)c1=O [Compound 3R] | < 10 nM | < 100 nM | – | – | – | – | – | – | < 10 nM | – | – | –
17 | CC(=O)c1c(C)c2cnc(Nc3ccc4c(c3)OC[C@@H]3CN(C5CN(C(C)=O)C5)CCN43)nc2n(C2CCCC2)c1=O [Compound 11S] | < 20 nM | < 100 nM | – | < 10 nM | 3000 ng·h/mL | 424 ng/mL | 2 h | 157 min | < 10 nM | – | – | –
18 | CC(=O)c1c(C)c2cnc(Nc3ccc4c(c3)OC[C@@H]3CN(C5COC5)CCN43)nc2n(C2CCCC2)c1=O [Compound 13S] | < 20 nM | < 100 nM | – | – | 860 ng·h/mL | 169 ng/mL | 1.83 h | 117 min | < 10 nM | – | – | –
19 | CC(=O)c1c(C)c2cnc(Nc3ccc4c(c3)OC[C@@H]3CN(C5CN(S(C)(=O)=O)C5)CCN43)nc2n(C2CCCC2)c1=O [Compound 14S] | < 20 nM | < 100 nM | – | – | 2030 ng·h/mL | 442 ng/mL | 1.33 h | 110 min | < 10 nM | – | – | –
20 | CC(=O)c1c(C)c2cnc(Nc3ccc4c(c3)OC[C@@H]3CN(C5CC(F)(F)C5)CCN43)nc2n(C2CCCC2)c1=O [Compound 15S] | – | < 1000 nM | – | < 100 nM | – | – | – | – | < 50 nM | – | – | –
21 | CC(=O)c1c(C)c2cnc(Nc3ccc4c(c3)OC[C@@H]3CN(C5CCN(CC(F)(F)F)CC5)CCN43)nc2n(C2CCCC2)c1=O [Compound 16S] | – | < 500 nM | – | – | – | – | – | – | < 10 nM | – | – | –
22 | CC(=O)c1c(C)c2cnc(Nc3ccc4c(c3)OCC3CNCCN43)nc2n(C2CCCC2)c1=O (centres unmarked) [Ref-B, reference compound] | – | – | – | – | 108 ng·h/mL | 13.9 ng/mL | 3.33 h | 403 min | – | – | – | –
